According to PubChem BioAssay AID1996:
Converted amounts (≈) assume the structure as drawn.

Conditions: buffer; pH 7.4; 200.0 µM

| Compound | solubility kinetic [µg/mL] |
| --- | --- |
| CC(=O)N1CCN(CC(C)(C)NS(=O)(=O)c2ccc(C)cc2)CC1 | 46.6 (≈ 132 µM) |
| COC(=O)CC1NCCc2cc(OC)c(OC)cc21 (stereo not given) | > 39.8 |
| Cc1ccccc1OCC(=O)Nc1cccc(Cl)c1C | < 0.6 |
| Cc1ccc(SCC(=O)NC(C)c2ccccc2)cc1 (stereo not given) | > 42.8 |
| Cc1cc(/C=C2/C(=O)NC(=O)N(c3ccc(Br)cc3)C2=O)c(C)n1C | 5.3 (≈ 13.2 µM) |
| CCC(C)(NC(=O)c1ccccn1)C(=O)NC1CCCC1 (stereo not given) | > 43.4 |
| O=C(O)CCn1c(=S)n(CCC(=O)O)c2ccccc21 | > 44.1 |
| c1csc(-c2nc3ccccc3s2)c1 | 0.7 (≈ 3.22 µM) |
| COCCCNC(=S)N(Cc1ccccc1)Cc1ccc(F)cc1 | 22.1 (≈ 63.8 µM) |
| CC1=C(C(=O)OC(C)C)C(c2cccs2)NC(=O)N1 (stereo not given) | 37.2 (≈ 133 µM) |
| COc1ccc(C(=O)NCCN2CCOCC2)c(OC)c1 | > 44.2 |
| CC(C)c1ccc(NC2CCCN(C(=O)c3cscn3)C2)cc1 (stereo not given) | > 49.4 |
| O=S1(=O)CCN(Cc2ccc(F)cc2)CC1 | > 36.5 |
| N/C(CSc1ncccc1C(F)(F)F)=N\O | > 37.7 |
| Cc1ccccc1C(=O)O/N=C(\N)c1ccccc1 | 34.3 (≈ 135 µM) |
| COc1cccc(C(=O)Nc2cccc(-c3ccccc3)c2)c1 | 2.5 (≈ 8.24 µM) |
| COc1ccc(/C(N)=N/OC(=O)CCC2CCCC2)cc1 | 4.2 (≈ 14.5 µM) |
| O=C(Nc1cccc([N+](=O)[O-])c1)C1C2CCCCC21 (stereo not given) | 0.5 (≈ 1.92 µM) |
| Cc1ccc(C(=O)NCCc2ccc(F)cc2)s1 | 5.6 (≈ 21.3 µM) |
| COC1CC(C)NC(=S)N1 (stereo not given) | > 24 |
| COc1ccc(N=C2NC(=O)/C(=C/C=C/c3ccccc3)S2)cc1 | < 0.4 |
| CC(C)c1ccccc1NC(=S)NC(=O)C1CCCCC1 | 0.9 (≈ 2.96 µM) |
| COc1ccc(OCC(O)CNC(=O)Nc2cc(F)ccc2C)cc1 (stereo not given) | 17.2 (≈ 49.4 µM) |
| Cc1ccnc(NC(=O)COc2ccc3c(c2)CCC3)c1 | 1.6 (≈ 5.67 µM) |

| Compound | solubility kinetic [µg/mL] |
| --- | --- |
| Cc1cc(Cl)nc(Cl)c1C(=O)NCc1ccc(Cl)cc1 | 6.8 (≈ 20.6 µM) |
| CN(C)CCn1cnc2ccccc21.Cl | > 39.3 |
| Cc1ccc(CNC(=O)CNC(=O)c2ccco2)cc1 | > 40.8 |
| C=CCn1c(N)cc(=O)nc1SCC(=O)Nc1ccccc1C(N)=O | 49.9 (≈ 139 µM) |
| NS(=O)(=O)Cc1noc2ccccc12 | > 31.8 |
| O=C(Nc1ccccn1)c1sc2cc([N+](=O)[O-])ccc2c1Cl | 1.7 (≈ 5.09 µM) |
| COC(=O)c1sccc1NC(=O)Nc1cccc([N+](=O)[O-])c1 | 5.7 (≈ 17.7 µM) |
| Brc1ccc(OCc2cn3ccccc3n2)cc1 | 5.3 (≈ 17.5 µM) |
| O=C(CCc1ccccc1)NCCc1ccc(F)cc1 | 37.4 (≈ 138 µM) |
| COc1ccc(OC)c(Nc2c3ccccc3nc3ccccc23)c1 | 12.2 (≈ 36.9 µM) |
| Cc1nn(CCCC(=O)O)c(C)c1[N+](=O)[O-] | > 34.1 |
| O=C(CCNC(=O)c1ccccc1Cl)NCc1ccco1 | > 46 |
| COC(=O)c1c(C)oc(C)c1S(=O)(=O)N(C)C1CCCCC1 | 38.9 (≈ 118 µM) |
| CC(C)(C)c1ccccc1NC(=O)CN1C(=O)NC2(CCCC2)C1=O | 6.1 (≈ 17.8 µM) |
| S=C1NCN(Cc2ccccc2)CN1C1CCCCC1 | 4.5 (≈ 15.5 µM) |
| NS(=O)(=O)c1cnccc1Oc1cccc(Cl)c1 | > 42.7 |
| C=C(C)CN(Cc1ccccc1)C(=S)Nc1ccccc1 | 1.9 (≈ 6.41 µM) |
| Cc1cc(C(=O)NC(Cc2ccccc2)C(=O)O)c(C)o1 (stereo not given) | > 43.1 |
| Cc1cc(C)c(C(=O)NCCCN2CCOCC2)c(C)c1 | > 43.6 |
| Cc1ccc(NC(=O)CNC(=O)c2ccc(C)o2)cc1 | > 40.8 |
| CCN(CC(=O)Nc1ccccc1OC)C(=O)CC1CCCC1 | > 47.8 |
| Cc1ccc(S(=O)(=O)N2CCCCC2)cc1NC(=O)c1cc(F)c(F)c(F)c1F | 4.7 (≈ 10.9 µM) |
| NC1=NC(=O)/C(=C\c2cccnc2)S1 | > 30.8 |
| Cc1cccc(-n2c(C)c(C)c3c(N)ncnc32)c1 | 32.7 (≈ 130 µM) |

| Compound | solubility kinetic [µg/mL] |
| --- | --- |
| Cc1ccccc1OCc1nc(C#N)c(N2CCCC2)o1 | 10.9 (≈ 38.5 µM) |
| CCOC(=O)c1sc2nc(C)nc(N3CCN(S(=O)(=O)c4ccccc4)CC3)c2c1C | 2.5 (≈ 5.43 µM) |
| Cc1ccc(S(=O)(=O)N2CCN(C(=O)Cn3c(=O)cnc4ccccc43)CC2)c(C)c1 | > 66.1 |
| O=S(=O)(Nc1cccnc1Cl)c1ccc(-c2ccccc2)cc1 | 47.7 (≈ 138 µM) |
| O=C(CCCc1ccccc1)N1CCN(C2CCCCC2)CC1 | 46.6 (≈ 148 µM) |
| CCNc1nc(NCC)nc(N(CC)C(N)=S)n1 | 10 (≈ 37.1 µM) |
| O=C(CCCN1C(=O)/C(=C\c2ccccc2)SC1=S)Nc1ccccc1O | < 0.4 |
| O=C(NCCCNC(=O)c1ccccc1)c1ccccc1 | > 42.4 |
| Cc1ccccc1NC(=S)N/N=C/c1ccc(O)cc1O | > 45.2 |
| O=Cc1cn(CC(=O)Nc2ccc3c(c2)OCO3)c2ccccc12 | 0.4 (≈ 1.24 µM) |
| C/C(=C\C(=O)Nc1cscc1C)C(=O)O | 28.2 (≈ 125 µM) |
| CC(=O)CCc1ccc(OCCCOc2cccc3cccnc23)cc1 | 25.5 (≈ 73 µM) |
| NNC(=O)c1ccc(N2CCCCCC2)c([N+](=O)[O-])c1 | > 41.7 |
| O=S(=O)(NC1CCN(Cc2ccccc2)CC1)c1ccc(Cl)cc1 | > 54.7 |
| COc1ccccc1N1C(=O)C=C(Sc2nc(C)cc(C)n2)C1=O | 9.1 (≈ 26.7 µM) |
| O=C(CN1C(=O)COc2ccccc21)NC1CCCC1 | 32.9 (≈ 120 µM) |
| O=C(CC(c1ccccc1)c1ccccc1)Nc1ccc(O)cc1 | 31.7 (≈ 99.9 µM) |
| O=C1OCC2=C1C(c1ccc(F)cc1)CC(=O)N2c1ccc(F)cc1 (stereo not given) | > 51.2 |
| CCN(Cc1ccccc1)C(=O)c1ccc(SC)cc1OC | 45.8 (≈ 145 µM) |
| CCC(C)[C@H](NC(=O)NCCC1=CCCCC1)C(=O)O (stereo not given in full) | 38.2 (≈ 135 µM) |
| O=C(Nc1sc2c(c1C(=O)O)CCCC2)c1cccc(Cl)c1 | 45.5 (≈ 135 µM) |
| O=C(Nc1ccccc1-c1ccccc1)C1CCCC1 | 32.4 (≈ 122 µM) |
| N/C(=N/OC(=O)c1ccccc1Cl)c1ncc([N+](=O)[O-])s1 | 1.3 (≈ 3.98 µM) |
| Cc1ccccc1NC(=O)NCCCCc1ccccc1 | 1.5 (≈ 5.31 µM) |

| Compound | solubility kinetic [µg/mL] |
| --- | --- |
| N#C/C(=C\c1cccnc1)C(=O)Nc1ccc(SC(F)F)cc1 | 8 (≈ 24.1 µM) |
| COc1ccc(N2CCOCC2)c(NC(=O)c2cc3ccccc3o2)c1 | < 0.4 |
| Cc1ccnc(SCC(=O)Nc2cc(C)on2)n1 | > 39.6 |
| Cc1ccc(N(CC(=O)N2CCN(Cc3ccccc3)CC2)S(C)(=O)=O)cc1C | 50.9 (≈ 122 µM) |
| COc1ccc(C(=O)NCCc2c[nH]c3ccccc23)cc1[N+](=O)[O-] | 10.8 (≈ 31.8 µM) |
| O=C(Nc1cccc(Cl)c1)Nc1ccc2nccnc2c1 | 1.7 (≈ 5.69 µM) |
| Cc1cc(C(=O)Nc2ccncc2)ccc1[N+](=O)[O-] | 18.4 (≈ 71.5 µM) |
| CC(=O)N1CCN(C(=O)c2ccc(C(=O)c3ccccc3)cc2)CC1 | > 50.5 |
| Cc1ccc([N+](=O)[O-])cc1N(CC(=O)N1CCCCC1)S(C)(=O)=O | > 53.3 |
| Cc1ccc(CC(=O)Nc2ccc(F)c([N+](=O)[O-])c2)cc1C | 4.1 (≈ 13.6 µM) |
| O=C(/C=C/c1ccc([N+](=O)[O-])cc1)c1cccs1 | 1.6 (≈ 6.17 µM) |
| CCOc1ccc(CC(=O)N2CCN=C2SC)cc1 | > 41.8 |
| COC(=O)/C=C1\SC(=Nc2ccc(OC)cc2)NC1=O | 1.9 (≈ 6.5 µM) |
| Nc1cc(=O)[nH]c(SCC(=O)NCCC2=CCCCC2)n1 | > 46.3 |
| CCOC(=O)C1CCCN(C(=S)Nc2ccc(S(=O)(=O)N3CCOCC3)cc2)C1 (stereo not given) | > 66.2 |
| CN(C)S(=O)(=O)c1cccc(NC(=S)NCc2ccco2)c1 | > 50.9 |
| O=C(CSc1nncn1-c1ccccc1F)NC1CC1 | > 43.8 |
| O=C(CCc1ccccc1)Nc1ccccc1C(=O)N1CCOCC1 | > 50.8 |
| O=C(/C=C/c1ccccc1[N+](=O)[O-])Nc1cccc(S(=O)(=O)NC2=NCCCCC2)c1 | 14.4 (≈ 32.5 µM) |
| O=C(CC1CC2CCC1C2)NCCc1ccc(Cl)cc1 (stereo not given) | 29.7 (≈ 102 µM) |
| C=Cn1cc[n+](CC(=O)c2cccs2)c1.[Br-] | > 44.9 |
| CCNS(=O)(=O)c1ccc(CCC(=O)NCc2cccnc2)cc1 | 35.6 (≈ 102 µM) |
| CCOC(=O)C1(Cc2cccc(F)c2)CCN(C(=O)c2ccoc2C)CC1 | 52.2 (≈ 140 µM) |
| CSCC[C@H](NC(=O)c1ccco1)c1nnc2ccccn12 | > 47.5 |

| Compound | solubility kinetic [µg/mL] |
| --- | --- |
| C=CCN(CC=C)S(=O)(=O)c1ccc(NC(=S)NC(=O)C2CC2)cc1 | 7.8 (≈ 20.6 µM) |
| Cc1cc(=O)[nH]c2ccc(S(=O)(=O)N3CCOCC3)cc12 | 16 (≈ 51.9 µM) |
| COc1ccc2nc(N/C(N)=N/S(C)(=O)=O)nc(C)c2c1 | 3.1 (≈ 10 µM) |
| O=C(Cc1ccccc1[N+](=O)[O-])N1CCOCC1 | > 37.5 |
| Cc1cccc(C2N=C(N)Nc3nc4ccccc4n32)c1 (stereo not given) | 34.3 (≈ 124 µM) |
| COc1ccc(NC(=O)C(=S)N2CCCC2)cc1 | > 39.7 |
| Cl.NC(N)=Nc1nc(-c2ccccc2)c2cc(Cl)ccc2n1 | 9.7 |
| O=S(=O)(c1ccc(F)cc1)N1CCN(CCc2ccccc2)CC1 | 4.1 (≈ 11.8 µM) |
| OC1=C(O)c2nc3cc(F)ccc3nc21 | > 30.6 |
| Cc1ccc(C)c(OCc2cc(C(=O)N3CCOCC3)no2)c1 | 42.1 (≈ 133 µM) |
| O=CN1CCN(C(=S)Nc2ccc(OC(F)F)cc2)CC1 | > 47.3 |
| CCCc1cnc(N2CCN(C(=O)c3ccccc3)CC2)nc1 | > 46.6 |
| Cc1ccc(CNC(=O)COC(=O)c2cc(C)oc2C)cc1 | 4.4 (≈ 14.6 µM) |
| COc1cc(CO)ccc1Oc1nc2ccccc2n2cnnc12 | > 48.3 |
| NS(=O)(=O)c1ccc(CNC(=O)c2cc(=O)c3ccccc3o2)cc1 | 1.7 (≈ 4.74 µM) |
| O=c1cc(O)c2sc(Nc3cccc(C(F)(F)F)c3)nc2[nH]1 | 36.9 (≈ 113 µM) |
| CC1(C)CC(=O)N(c2ccc(C#N)cc2)C(=O)C1 | > 36.3 |
| CCc1ccc(OCC(=O)Nc2ccncc2)cc1 | > 38.4 |
| CCC(=O)c1ccc(OCC(=O)NCCc2ccccn2)cc1 | > 46.9 |
| CN1C(=O)/C(=C2\SC(=S)N(CCCCCC(=O)O)C2=O)c2ccccc21 | 6 (≈ 15.4 µM) |
| Cc1ccc(C)c(Cn2cnc3c(oc4ccccc43)c2=O)c1 | < 0.3 |
| COc1ccc(CNC(=O)N[C@@H](CC(C)C)C(=O)O)cc1OC | > 48.7 |
| Cc1cc(Nc2cccc([N+](=O)[O-])c2)c2cccc(C)c2n1.Cl | 5.5 |
| Cn1ccsc1=NC(=O)c1ccc(S(=O)(=O)C(F)F)cc1 | 2.5 (≈ 7.52 µM) |
